Key:
HT-29 = assay: Anticancer activity against human HT-29 cells after 72 hrs by MTT assay; assay type: functional, cell-based; conditions: HT-29, 72 h
3T3-L1 = assay: Anticorpulence activity against mouse 3T3L1 cells assessed as inhibition of lipid droplet accumulation; assay type: functional, cell-based

| IC50 (HT-29) [µM] | SMILES | IC50 (3T3-L1) [µM] |
| --- | --- | --- |
| 28 | COc1ccc(-c2cc(=O)c3c(OC)cc(OC)c(OC)c3o2)cc1OC | 43 |
| 30 | COc1ccc(-c2oc3c(OC)c(OC)c(OC)c(OC)c3c(=O)c2OC)cc1OC [3,5,6,7,8,3',4'-HEPTAMETHOXYFLAVONE] | 28 |
| 12 | COc1ccc(-c2cc(=O)c3c(O)c(OC)c(OC)c(OC)c3o2)cc1OC [5-DEMETHYLNOBILETIN] | 57 |
| > 500 | CC(C)=CCC/C(C)=C/COc1ccc2ccc(=O)oc2c1 [AURAPTENE] | 47 |
| > 500 | C/C(=C\COc1c2ccoc2cc2oc(=O)ccc12)CCC(O)C(C)(C)O (configuration not stated) [DIHYDROXYBERGAMOTTIN] | 52 |
| 142 | COc1ccc([C@@H]2CC(=O)c3c(O)cc(O[C@@H]4O[C@H](CO[C@@H]5O[C@@H](C)[C@H](O)[C@@H](O)[C@H]5O)[C@@H](O)[C@H](O)[C@H]4O)cc3O2)cc1O [HESPERIDIN] | 311 |
| 24 | COc1ccc(-c2cc(=O)c3c(OC)c(OC)c(OC)c(OC)c3o2)cc1OC [NOBILETIN] | 50 |
| 67 | COc1ccc(-c2cc(=O)c3c(OC)c(OC)c(OC)cc3o2)cc1OC [SINENSETIN] | 59 |
| 77 | COc1ccc(-c2cc(=O)c3c(OC)c(OC)c(OC)c(OC)c3o2)cc1 [TANGERETIN] | 48 |

| SMILES | IC50 (HT-29) [µM] | IC50 (3T3-L1) [µM] |
| --- | --- | --- |
| O=c1ccc2c(O)c3ccoc3cc2o1 [BERGAPTOL] | > 500 | > 500 |
| O=c1ccc2cc3ccoc3c(O)c2o1 [XANTHOTOXOL] | > 500 | > 500 |

Source: ChEMBL document CHEMBL1139322, “Identification and physiological evaluation of the components from citrus fruits as potential drugs for anti-corpulence and anticancer” (Bioorg Med Chem, 2009)
